Where “and” joins values, the source holds several entries; their conditions need not be identical. Equal values may be shown once. Toxic doses and inconclusive results are not listed. Residues, ends and D or L forms follow the SMILES beside them. *: point of attachment. Cbz = O=C(OCc1ccccc1)*

From PubChem BioAssay AID328 (DTP/NCI, 2004) come the findings set out here.

This test deals with BDF1 mice, P388 leukemia ip, median survival T/C. As to the kind of experiment: NCI In Vivo Anticancer Drug Screen. Data for tumor model P388 Leukemia (intraperitoneal) in B6D2F1 (BDF1) mice. The note with it: endpoint: median survival time, higher = longer survival. Summed up:
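Mice carrying the transplantable tumour receive compound or vehicle. Survival is followed in each arm, and the treated measure is divided by the vehicle measure.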

Where [1] appears, read: dose: 100.0 mg/kg/injection, schedule: Q01DX009 (ip), vehicle: saline with Tween-80.
Where [2] appears, read: dose: 100.0 mg/kg/injection, schedule: Q04DX003 (ip), vehicle: saline with Tween-80.
[3] abbreviates: dose: 200.0 mg/kg/injection, schedule: Q01DX009 (ip), vehicle: saline with Tween-80.
The mark [4] stands for this setting: dose: 200.0 mg/kg/injection, schedule: Q04DX003 (ip), vehicle: saline with Tween-80.
Where [5] appears, read: dose: 400.0 mg/kg/injection, schedule: Q01DX009 (ip), vehicle: saline with Tween-80.
Setting [6] is: dose: 400.0 mg/kg/injection, schedule: Q04DX003 (ip), vehicle: saline with Tween-80.
Where [7] appears, read: dose: 12.5 mg/kg/injection, schedule: Q01DX009 (ip), vehicle: saline.
Setting [8] is: dose: 6.25 mg/kg/injection, schedule: Q04DX003 (ip), vehicle: water.
Setting [9] is: dose: 12.5 mg/kg/injection, schedule: Q04DX003 (ip), vehicle: water.
[10] abbreviates: dose: 25.0 mg/kg/injection, schedule: Q04DX003 (ip), vehicle: water.
Where [11] appears, read: dose: 50.0 mg/kg/injection, schedule: Q04DX003 (ip), vehicle: water.
[12] abbreviates: dose: 50.0 mg/kg/injection, schedule: Q01DX009 (ip), vehicle: saline.
The mark [13] stands for this setting: dose: 50.0 mg/kg/injection, schedule: Q01DX009 (ip), vehicle: saline with Tween-80.
The mark [14] stands for this setting: dose: 100.0 mg/kg/injection, schedule: Q01DX009 (ip), vehicle: saline.

For `CCCC(F)C(=O)OCC` (stereo not drawn), the T/C is, setting by setting: under setting [1], 90 % of control; under setting [2], 100 % of control; under setting [3], 104 % of control; under setting [4], 109 % of control; under setting [5], 118 % of control; under setting [6], 100 % of control.

With `CS(=O)(=O)OCCN1CCC2(CC1)SSC1(CCN(CCOS(C)(=O)=O)CC1)S2`, the T/C (dose: 3.12 mg/kg/injection, schedule: Q01DX009 (ip), vehicle: saline) is 95 % of control and 96 % of control; the T/C (dose: 6.25 mg/kg/injection, schedule: Q01DX009 (ip), vehicle: saline) is 115 % of control; the T/C (dose: 7.5 mg/kg/injection, schedule: Q04DX003 (ip), vehicle: saline) was 122 % of control; the T/C (dose: 10.0 mg/kg/injection, schedule: Q01DX009 (ip), vehicle: saline) is 154 % of control; the T/C under setting [7] is 109 % of control and 115 % of control; the T/C (dose: 12.5 mg/kg/injection, schedule: Q04DX003 (ip), vehicle: saline) is 122 % of control.

Regarding `Cc1ccc(NS(=O)(=O)c2ccccc2)nc1`, the T/C under setting [2] is 112 % of control, the T/C under setting [4] is 116 % of control and the T/C under setting [6] is 96 % of control.

With `N#C/C(=C\c1ccc(O)cc1)c1ccc([N+](=O)[O-])cc1`, the T/C is 98 % of control (dose: 25.0 mg/kg/injection, schedule: Q01DX001 (ip), vehicle: saline); 100 % of control (dose: 50.0 mg/kg/injection, schedule: Q01DX001 (ip), vehicle: saline); 97 % of control (dose: 100.0 mg/kg/injection, schedule: Q01DX001 (ip), vehicle: saline with Tween-80); 96 % of control (dose: 100.0 mg/kg/injection, schedule: Q01DX001 (ip), vehicle: saline).

`COc1cc2c(cc1OC)C1CNCC1C(c1cc(OC)c(OC)c(OC)c1)C2` (stereo not drawn): the T/C reads like this: (dose: 12.5 mg/kg/injection, schedule: Q01DX009 (ip), vehicle: Klucel (hydroxypropylcellulose) (HPC)) 105 % of control; (dose: 25.0 mg/kg/injection, schedule: Q01DX009 (ip), vehicle: Klucel (hydroxypropylcellulose) (HPC)) 100 % of control; (dose: 50.0 mg/kg/injection, schedule: Q01DX009 (ip), vehicle: Klucel (hydroxypropylcellulose) (HPC)) 100 % of control; (dose: 100.0 mg/kg/injection, schedule: Q01DX009 (ip), vehicle: Klucel (hydroxypropylcellulose) (HPC)) 90 % of control.

Consider `CCC(CO)NC(=O)/C=C/c1ccccc1` (stereo not drawn), for which the T/C runs as follows: under setting [3], 91 % of control; under setting [5], 91 % of control.

As to `O=C(O)CNC1CSSC1`, the T/C (dose: 1.56 mg/kg/injection, schedule: Q04DX003 (ip), vehicle: water) is 97 % of control; the T/C (dose: 3.12 mg/kg/injection, schedule: Q01DX009 (ip), vehicle: water) is 111 % of control; the T/C (dose: 3.12 mg/kg/injection, schedule: Q04DX003 (ip), vehicle: water) was 88 % of control; the T/C (dose: 6.25 mg/kg/injection, schedule: Q01DX009 (ip), vehicle: water) is 101 % of control; the T/C under setting [8] was 93 % of control; the T/C under setting [9] was 88 % of control. Also, the T/C by setting is: (dose: 25.0 mg/kg/injection, schedule: Q01DX009 (ip), vehicle: water) 109 % of control; under setting [10], 94 % of control; (dose: 50.0 mg/kg/injection, schedule: Q01DX009 (ip), vehicle: water) 108 % of control; under setting [11], 86 % of control; (dose: 100.0 mg/kg/injection, schedule: Q01DX009 (ip), vehicle: water) 91 % of control.

With `CC(=O)Nc1ccc(N2CCN=N2)cc1`, the T/C is 110 % of control under setting [7]; 95 % of control (dose: 25.0 mg/kg/injection, schedule: Q01DX009 (ip), vehicle: saline); 105 % of control under setting [12]; 104 % of control (dose: 75.0 mg/kg/injection, schedule: Q01DX009 (ip), vehicle: Klucel (hydroxypropylcellulose) (HPC)).

Turning to `CN=S(=O)(OCCN(C)CCOS(=O)(=NC)c1ccc(C)cc1)c1ccc(C)cc1` (stereo not drawn), the T/C is 112 % of control (dose: 50.0 mg/kg/injection, schedule: Q01DX009 (ip), vehicle: saline + alcohol); 103 % of control (dose: 100.0 mg/kg/injection, schedule: Q01DX009 (ip), vehicle: saline + alcohol); 116 % of control (dose: 200.0 mg/kg/injection, schedule: Q01DX009 (ip), vehicle: saline + alcohol).

With `CCOC(=O)c1cc(OC(C)=O)c2c(ccc3ccccc32)c1C`, the T/C (dose: 100.0 mg/kg/injection, schedule: Q04DX003 (ip), vehicle: Klucel (hydroxypropylcellulose) (HPC)) was 91 % of control and the T/C (dose: 400.0 mg/kg/injection, schedule: Q04DX003 (ip), vehicle: Klucel (hydroxypropylcellulose) (HPC)) was 91 % of control.

For the compound `CCCCCCCCCCCCS(=O)CC(C)O` (stereo not drawn), under “dose: 100.0 mg/kg/injection, schedule: Q01DX009 (ip), vehicle: other”, the T/C was 123 % of control.

As for `CCC(CC)N(C)C(C)(C)CO`, the T/C runs as follows: (dose: 25.0 mg/kg/injection, schedule: Q01DX009 (ip), vehicle: saline with Tween-80) 100 % of control; under setting [13], 91 % of control; (dose: 50.0 mg/kg/injection, schedule: Q04DX003 (ip), vehicle: saline sonified) 104 % of control; under setting [1], 108 % of control; (dose: 100.0 mg/kg/injection, schedule: Q04DX003 (ip), vehicle: saline sonified) 104 % of control; (dose: 200.0 mg/kg/injection, schedule: Q04DX003 (ip), vehicle: saline sonified) 113 % of control.

Take `O=C(O)C1CCCN1C(=O)C1CCCN1C(=O)OCc1ccccc1` (stereo not drawn) (Cbz-Pro-Pro-OH; configuration not given here): the T/C (dose: 50.0 mg/kg/injection, schedule: Q01DX005 (ip), vehicle: saline) was 101 % of control; the T/C (dose: 100.0 mg/kg/injection, schedule: Q01DX005 (ip), vehicle: saline) was 101 % of control; the T/C (dose: 200.0 mg/kg/injection, schedule: Q01DX005 (ip), vehicle: saline) was 107 % of control.

On to `c1ccc2c3csc4ccccc4c-3nc2c1`, for which the T/C (dose: 1.56 mg/kg/injection, schedule: Q04DX003 (ip), vehicle: Klucel (hydroxypropylcellulose) (HPC)) is 95 % of control; the T/C (dose: 3.12 mg/kg/injection, schedule: Q04DX003 (ip), vehicle: Klucel (hydroxypropylcellulose) (HPC)) is 95 % of control; the T/C (dose: 5.7 mg/kg/injection, schedule: Q01DX009 (ip), vehicle: Klucel (hydroxypropylcellulose) (HPC)) was 92 % of control and 113 % of control; the T/C (dose: 6.25 mg/kg/injection, schedule: Q04DX003 (ip), vehicle: Klucel (hydroxypropylcellulose) (HPC)) is 104 % of control; the T/C (dose: 8.75 mg/kg/injection, schedule: Q01DX009 (ip), vehicle: Klucel (hydroxypropylcellulose) (HPC)) was 88 % of control and 118 % of control; the T/C (dose: 12.5 mg/kg/injection, schedule: Q04DX003 (ip), vehicle: Klucel (hydroxypropylcellulose) (HPC)) is 104 % of control. Also, the T/C (dose: 13.0 mg/kg/injection, schedule: Q01DX009 (ip), vehicle: Klucel (hydroxypropylcellulose) (HPC)) is 92 % of control and 113 % of control.

Turning to `Clc1ccc(-c2noc(CN3CCCCC3)n2)cc1`, the T/C under setting [13] was 88 % of control and the T/C under setting [1] is 88 % of control.

For the compound `Cc1ncc(O)c(CO)c1O`, the T/C was 110 % of control under setting [12]; 94 % of control under setting [14]; 99 % of control (dose: 200.0 mg/kg/injection, schedule: Q01DX009 (ip), vehicle: saline); 107 % of control (dose: 400.0 mg/kg/injection, schedule: Q01DX009 (ip), vehicle: saline).

In the case of `COc1cc2cc[n+](C)cc2cc1OC`, the T/C by setting is: under setting [8], 94 % of control; under setting [9], 94 % of control; (dose: 25.0 mg/kg/injection, schedule: Q04DX003 (ip), vehicle: saline) 100 % of control; under setting [10], 107 % of control; under setting [12], 100 % of control; (dose: 50.0 mg/kg/injection, schedule: Q04DX003 (ip), vehicle: saline) 86 % of control and 104 % of control. In addition, the T/C was 111 % of control under setting [11]; 100 % of control under setting [14]; 88 % of control and 90 % of control and 113 % of control (dose: 100.0 mg/kg/injection, schedule: Q04DX003 (ip), vehicle: saline); 111 % of control (dose: 100.0 mg/kg/injection, schedule: Q04DX003 (ip), vehicle: water).
